Data: patent publication US11236055B2 (Venenum Biodesign, LLC, priority 2016, dated 2022)
Where a name gives a salt, the structure may show the parent alone.

Experiments:
mouse TGR5 receptor = molecular target: T1, mouse TGR5 receptor (Mus musculus, UniProt Q80SS6); assay: Mouse TGR5 cAMP production assay (HTRF, Cisbio cAMP HiRange); assay type: cell-based; details: HEK293-EBNA cells overexpressing mouse TGR5, HTRF cAMP HiRange; coded A-D
T1 construct: expressed in transfected cells; host or cells: HEK293-EBNA (293 c18, ATCC CRL10852), Hygromycin B selection
T1 sequence (Q80SS6 1-329): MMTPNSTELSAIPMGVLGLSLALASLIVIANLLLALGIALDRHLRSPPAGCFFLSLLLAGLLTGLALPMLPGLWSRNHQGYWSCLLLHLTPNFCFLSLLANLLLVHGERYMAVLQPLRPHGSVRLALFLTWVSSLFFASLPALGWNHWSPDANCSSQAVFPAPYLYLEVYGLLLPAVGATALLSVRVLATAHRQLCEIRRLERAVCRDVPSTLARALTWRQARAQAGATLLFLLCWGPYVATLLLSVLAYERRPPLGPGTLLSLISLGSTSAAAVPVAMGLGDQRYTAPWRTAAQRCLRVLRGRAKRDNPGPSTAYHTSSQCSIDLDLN
Excerpt: Mouse TGR5 cAMP Production Assay
We evaluated compounds of the present invention for their ability to induce cAMP production in HEK-EBNA cells overexpressing the mouse TGR5 receptor. Human embryonic kidney cells (HEK293-EBNA) stably expressing mouse TGR5 receptor were established using the following procedure. Specifically, a commercially-obtained gene encoding mouse TGR5 (accession number BC116914) from Thermo Scientific (Waltham, Mass.) was cloned into an episomal expression vector. The resulting expression plasmid was then transfected into 293 c18 (ATCC® CRL10852™) cells, which express the Epstein-Barr virus nuclear antigen EBNA1 and can support the replication of episomal vectors. Selection for the plasmid was maintained with Hygromycin B. Cells were cultured and maintained in DMEM (Sigma; cat #6429) supplemented with 10% Fetal Bovine Serum, 1% penicillin/streptomycin, 2 mM L-alanine L-glutamine (GlutaMax), and 250 μg/mL Hygromycin.
2. HTRF cAMP Production Assay
In this second cAMP production assay, the cAMP production was measured in 384-well low volume plates (Greiner; cat #784075) using the Cisbio™ cAMP HiRange HTRF Assay Kit (Cisbio) according to the manufacturer's protocol.
Briefly, compounds were initially diluted in 100% DMSO (12-point serial dilution by half logs) in a 96-well plate and then were further diluted 1:50 in PBS containing 10 mM HEPES. 5 μL were transferred to the 384-well assay plate in duplicate. HEK293-EBNA cells stably overexpressing mouse TGR5 were harvested using non-enzymatic cell dissociation buffer (Sigma), spun down, then resuspended in serum-free DMEM with 500 μM IBMX at a density of 500,000 cells/mL. 5 μL of cell suspension was transferred to each well of the 384-well assay plate already containing compound. The plate was covered and incubated at room temperature for 1 hour. The d2-cAMP and anti-cAMP Ab-cryptate stock solutions were prepared as per kit instructions. Then 5 μL of each conjugate (d2 and cryptate) were added to each well of the assay plate. The plate was covered and incubated at room temperature for 1 hour. The plate was read on an Envision™ plate reader (Perkin Elmer).
(§1) In Table 33, EC50 values for both human and mouse cells were determined according to the TGR5 cAMP assays described above.

human TGR5 receptor = molecular target: T2, human TGR5 receptor (Homo sapiens, UniProt Q8TDU6); assay: Human TGR5 cAMP production assay; assay type: cell-based; details: human TGR5, luminescent cAMP assay; coded A-D; read-out: Human TGR5 Lum. cAMP Activity (EC50)
T2 construct: host or cells: CHO-K1 (hTGR5-CHO cells)
T2 sequence (Q8TDU6 1-330): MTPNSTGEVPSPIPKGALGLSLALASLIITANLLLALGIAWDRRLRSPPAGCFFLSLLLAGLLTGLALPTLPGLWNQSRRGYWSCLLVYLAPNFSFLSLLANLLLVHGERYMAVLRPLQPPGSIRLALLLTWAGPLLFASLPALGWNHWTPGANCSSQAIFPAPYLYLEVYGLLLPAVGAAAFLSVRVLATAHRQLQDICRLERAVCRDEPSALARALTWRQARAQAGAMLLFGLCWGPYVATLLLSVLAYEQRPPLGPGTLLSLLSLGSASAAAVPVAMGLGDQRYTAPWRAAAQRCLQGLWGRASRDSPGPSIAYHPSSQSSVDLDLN
Protocol: Human TGR5 cAMP Production Assay
We evaluated the Compounds of the present invention for their ability to induce cAMP production using CHO-K1 cells overexpressing the human TGR5 receptor. CHO-K1 cells stably expressing human TGR5 receptor (accession number NM_001077194.1 (hTGR5) (i.e., hTGR5-CHO cells) were purchased from DiscoveRx Corporation (Fremont, Calif.). hTGR5-CHO cells were grown in Ham's F-12 media supplemented with 10% Fetal Bovine Serum, 1% Penicillin-Streptomycin, 2 mM L-Alanine L-Glutamine (Glutamax), and 800 μg/mL Geneticin selection. The cAMP production assay was performed using DiscoveRx's cAMP XS+ kit (Catalog No. 90-0075XL) following the manufacturer's recommended protocol. Briefly, hTGR5-CHO cells were harvested using non-enzymatic cell dissociation buffer (Sigma-Aldrich, St. Louis, Mo.) and 1×10^6 cells were combined in Phosphate-Buffered Saline (PBS) to a final volume of 496 μL to which 4 μL of 125 mM IBMX (Sigma-Aldrich, St. Louis, Mo.) was added. 500 μL of cAMP antibody solution was added to the harvested cells and incubated at room temperature for 20 min.
Test compounds were serially diluted (half-log dilutions) in DMSO and then further diluted 1:50 in PBS, 10 mM HEPES buffer. 2 μL of serially diluted compound was added to a 384-well low volume plate (Greiner; cat #784075) and centrifuged briefly. 2 μL of the cell/cAMP antibody mixture was then added to each compound-containing well and allowed to incubate at room temperature for one hour. Following incubation, the XS+ kits' ED/Lysis/CL Substrate Working Solution was prepared following the manufacturer's recommended protocol and 4 μL was added to each well of the plate. The plate was then incubated for one hour at room temperature. Following incubation, 4 μL of Enzyme Acceptor reagent was added to the plate and allowed to incubate overnight at room temperature. Luminescent signal was then detected using the Viewlux instrument (Perkin-Elmer, Waltham, Mass.).
as §1

SMILES	EC50 (mouse TGR5 receptor)	EC50 (human TGR5 receptor)
Cc1c(Cl)cccc1S(=O)(=O)N[C@@H](C)c1cccc(-c2ccnnc2)c1 [Compound 1BP]	1000 to 30000 nM	100 to 999 nM
Cc1cc2nccn2cc1-c1cccc(C(C)(C)NS(=O)(=O)c2ccccc2C(F)(F)F)c1 [Compound 5AK, N-(2-(3-(7-methylimidazo[1,2-a]pyridin-6-yl)phenyl)propan-2-yl)-2-(trifluoromethyl)benzenesulfonamide]	1000 to 30000 nM	100 to 999 nM
Cc1cnccc1-c1cccc(C(C)(C)N(CCCC(=O)NCCNC(=N)N)S(=O)(=O)c2cccc(Cl)c2C)c1 [Compound 27AB, 4-(3-chloro-2-methyl-N-(2-(3-(3-methylpyridin-4-yl)phenyl)propan-2-yl)phenylsulfonamido)-N-(2-guanidinoethyl)butanamide]	100 to 999 nM	< 100 nM
Cc1cnccc1-c1cccc([C@H](C)N(CCCC(=O)NCCN)S(=O)(=O)c2ccccc2C(F)(F)F)c1 [Compound 20BX]	100 to 999 nM	< 100 nM
Cc1cnccc1-c1cccc([C@H](CC(=O)O)NS(=O)(=O)c2ccccc2C(F)(F)F)c1 [Compound 18, (S)-3-(3-(3-methylpyridin-4-yl)phenyl)-3-(2-(trifluoromethyl)phenylsulfonamido)propanoic acid]	100 to 999 nM	1000 to 30000 nM
COc1cnccc1-c1cccc(C(C)(C)NS(=O)(=O)c2ccc(Cl)cc2Cl)c1 [Compound 2BG]	< 100 nM	< 100 nM
COc1cnccc1-c1cccc(C(C)(C)NS(=O)(=O)c2ccccc2N)c1 [Compound 10, 2-amino-N-(2-(3-(3-methoxypyridin-4-yl)phenyl)propan-2-yl)benzenesulfonamide]	100 to 999 nM	100 to 999 nM
Cc1cnccc1-c1cccc([C@H](C)NS(=O)(=O)c2ccccc2C(F)(F)F)c1 [Compound 5AR, (S)-N-(1-(3-(3-methylpyridin-4-yl)phenyl)ethyl)-2-(trifluoromethyl)benzenesulfonamide]	100 to 999 nM	< 100 nM
Cc1cnccc1-c1cccc(C(C)(C)NS(=O)(=O)c2cc(Br)ccc2C)c1 [Compound 2BW]	100 to 999 nM	< 100 nM
CC(C)(NS(=O)(=O)c1ccccc1C(F)(F)F)c1cccc(-c2ccc(=O)[nH]c2)c1 [Compound 3, N-(2-(3-(6-oxo-1,6-dihydropyridin-3-yl)phenyl)propan-2-yl)-2-(trifluoromethyl)benzenesulfonamide]	1000 to 30000 nM	100 to 999 nM
COc1cnccc1-c1cccc(C(CO)NS(=O)(=O)c2cccc(C(F)(F)F)c2)c1 (racemic) [Compound 17, (+/−) N-(2-hydroxy-1-(3-(3-methoxypyridin-4-yl)phenyl)ethyl)-3-(trifluoromethyl)benzenesulfonamide]	1000 to 30000 nM	100 to 999 nM
Cc1cnccc1-c1cccc([C@H](CCCC#N)NS(=O)(=O)c2ccccc2C(F)(F)F)c1 [Compound 5BC, (S)-N-(4-cyano-1-(3-(3-methylpyridin-4-yl)phenyl)-butyl)-2-(trifluoromethyl)benzenesulfonamide]	< 100 nM	< 100 nM

Continued, values first:

EC50 (mouse TGR5 receptor)	EC50 (human TGR5 receptor)	SMILES
100 to 999 nM	< 100 nM	Cc1cnccc1-c1cccc([C@H](C)N(CCCC(=O)NCCNC(=O)CS(=O)(=O)O)S(=O)(=O)c2ccccc2C(F)(F)F)c1 [Compound 31AE, (S)-2-((2-(4-(N-(1-(3-(3-methylpyridin-4-yl)phenyl)ethyl)-2-(trifluoromethyl)phenylsulfonamido)butanamido)ethyl)amino)-2-oxoethanesulfonic acid]
100 to 999 nM	< 100 nM	Cc1cnccc1-c1cccc([C@H](C)N(CCCCC(=O)NCCOCCNC(=O)NCCS(=O)(=O)O)S(=O)(=O)c2cccc(Cl)c2C)c1 [Compound 28AF, (S)-17-((3-chloro-2-methylphenyl)sulfonyl)-18-(3-(3-methylpyridin-4-yl)phenyl)-4,12-dioxo-8-oxa-3,5,11,17-tetraazanonadecane-1-sulfonic acid]
< 100 nM	100 to 999 nM	CCc1cnccc1-c1cccc(C2CN(C(=O)CCC(=O)NCCS(=O)(=O)O)CCN2S(=O)(=O)c2cccc(Cl)c2C)c1 (stereo not shown) [Compound 53AB, 2-(4-(4-((3-chloro-2-methylphenyl)sulfonyl)-3-(3-(3-ethylpyridin-4-yl)phenyl)piperazin-1-yl)-4-oxobutanamido)ethanesulfonic acid]
100 to 999 nM	< 100 nM	Cc1cnccc1-c1cccc(C(C)N(CCCNc2c(NCS(=O)(=O)O)c(=O)c2=O)S(=O)(=O)c2cccc(Cl)c2C)c1 (stereo not shown) [Compound 32AA, ((2-((3-(3-chloro-2-methyl-N-(1-(3-(3-methylpyridin-4-yl)phenyl)ethyl)phenylsulfonamido)propyl)amino)-3,4-dioxocyclobut-1-en-1-yl)amino)methanesulfonic acid]
< 100 nM	< 100 nM	Cc1cnccc1-c1cccc([C@H](C)N(CCCC(=O)NCCNS(=O)(=O)NOC(C)(C)C)S(=O)(=O)c2cccc(Cl)c2C)c1 [Compound 37A]
< 100 nM	< 100 nM	CCc1cnccc1-c1cccc(C2CNCCN2S(=O)(=O)c2cccc(Cl)c2C)c1 (racemic) [Compound 43, (+/−) 1-((3-chloro-2-methylphenyl)sulfonyl)-2-(3-(3-ethylpyridin-4-yl)phenyl)piperazine hydrochloride]
< 100 nM	< 100 nM	COc1cnccc1-c1cccc(C2CN(C(=O)CS(=O)(=O)O)CCN2S(=O)(=O)c2cccc(Cl)c2C)c1 (stereo not shown) [Compound 49AF, 2-(4-((3-chloro-2-methylphenyl)sulfonyl)-3-(3-(3-methoxypyridin-4-yl)phenyl)piperazin-1-yl)-2-oxoethanesulfonic acid]
< 100 nM	100 to 999 nM	Cc1c(Cl)cccc1S(=O)(=O)N1CCN(C(=O)CS(=O)(=O)O)CC1c1cccc(-c2ccncc2Cl)c1 (stereo not shown) [Compound 49AE, 2-(4-((3-chloro-2-methylphenyl)sulfonyl)-3-(3-(3-chloropyridin-4-yl)phenyl)piperazin-1-yl)-2-oxoethanesulfonic acid]
